Laboratory results from article PMC10341634, “Vasodilating Effects of Antispasmodic Agents and Their Cytotoxicity in Vascular Smooth Muscle Cells and Endothelial Cells—Potential Application in Microsurgery” (International Journal of Molecular Sciences, 2023).
Read-outs that look alike come from different tables or passages of the source.

Columns and labels:
[1] = system: rat smooth muscle cells (RSMCs); experiment: cells
Method: Rat smooth muscle cells were cultured in DMED:F12 (Lonza, Besel, Switzerland) containing 10% fetal bovine serum, 1% penicillin/streptomycin solution (GA-1000; Lonza, Basel, Switzerland), and 1% stable glutamine (Wako, Tokyo, Japan) at 37 °C in a 5% CO2 incubator. The medium was changed every three days. Once the adherent cells reached 70–80% subconfluence, they were detached from the dish using Accutase (Nacalai Tesque, Kyoto, Japan). The cell suspension was diluted with DMED:F12 (+FBS) and adjusted to a concentration of 5 × 10^4 cells/mL, and then 100 μL of the suspension was seeded into each well of a 96-well dish (Nunc™ MicroWell™ 96-Well, Nunclon Delta-Treated, Flat-Bottom Microplate, Thermo Fisher, Waltham, MA, USA) and incubated for two days at 37 °C in a 5% CO2 incubator. Passage 6 smooth muscle cells were used, and five 96-well plates were prepared.
(§1) IC50 is the drug concentration at which half of the cells undergo cell death; it serves as an indicator of cellular toxicity. […] IC50 values were measured using the GloMax® Navigator System (Promega, Madison, WI, USA). The test compounds were diluted in the culture medium and stored in an incubator until use. […] For each test compound, a control and 11 different concentrations were prepared, and the cytotoxicity after the addition of the compounds was examined. The RealTime-GloTM MT Cell Viability Assay kit (Promega, cat#G9711, USA) was used, and the substrate and Nano-luc were added to the medium in each well of a 96-well plate seeded with RSMCs and HCAECs, with 50 μL per well. The plate was incubated for 1–3 h in the incubator. Then, 50 μL of each prepared test compound was added to the plate. The IC50 values were measured using GloMax at 1, 5, 10, 30, and 60 min after the addition of the test compounds, and cytotoxicity was evaluated.

[2] = system: human coronary artery endothelial cells (HCAECs); experiment: cells
Method: Human coronary artery ECs were cultured in a collagen-coated dish (AGC TECHNO GLASS Co., Shizuoka, Japan) in EBM-2 (CC-3156, Lonza, Besel, Switzerland) containing Supplements and Growth Factors (CC-4176, Lonza, Besel, Switzerland). The cells were cultured at 37 °C in a 5% CO2 incubator. The medium was changed every three days until the adherent cell monolayer reached 70–80% subconfluence. Subsequently, cells were detached from the dish using Accutase. The cell suspension was diluted with medium, adjusted to a concentration of 5 × 10^4 cells/mL, and seeded into a 96-well plate. The dish was incubated for two days at 37 °C in a 5% CO2 incubator. En ECs at passages 5–6 were used, and five 96-well plates were prepared.
as §1

[3] = system: rat testicular vasculature; set-up: method as in doi:10.1007/BF00585581; settings: local administration after epinephrine-induced vasoconstriction; cited from earlier work
rat abdominal aorta [4] = settings: cited from earlier work
[5] = 1% lidocaine; cited from earlier work
[6] = cited from earlier work
[7] = system: NE-dependent contractions; settings: cited from earlier work
[8] = 4% lidocaine administered locally; humans; cited from earlier work
rat abdominal aorta [9] = experiment: Wire myograph vasodilation of norepinephrine-contracted rat abdominal aorta rings; settings: for concentration achieving maximal vasodilation effect (approximately 100% relaxation): 10 min after administration, contraction induced by 5 μM norepinephrine
Method: Consistent with our previous study, we applied a 1 gram-force (gf) load to approximately 1 mm cross-sectional slices of the rat abdominal aorta. Subsequently, we induced contraction by adding 5 μM norepinephrine. Various vasodilators were then added, and the concentration at which the vessels relaxed back to 1 gf was considered the concentration required for 100% relaxation.
A wire myograph system (Bio Research Co., Osaka, Japan) was used, as previously reported by Ogawa et al.. The rat abdominal aortae were cut into rings and manipulated using two L-shaped hooks. One hook was fixed, and the other was connected to an amplifier to measure the force exerted on the pulled vessel in grams. The rats were deeply anesthetized, and the abdominal aorta was dissected. The excised vessels were immersed in Ringer solution (NaCl 118 mM, KCl 4.7 mM, CaCl2/2H2O 2.5 mM, MgSO4/7H2O 1.2 mM, KH2PO4 1.2 mM, NaHCO3 25 mM, C6H12O6 11 mM, Na2EDTA 0.5 mM). The rat aorta was then sliced into approximately 1 mm-wide rings and hooked onto L-shaped hooks. The chamber was filled with 3 mL of Krebs-Ringer solution, and a gas mixture of 95% O2 and 5% CO2 was bubbled through. The chamber was maintained at 37 °C.
Once the wire myograph system was initiated, the wire was moved, and a load was exerted on the hook-attached chamber. The applied tensile force, amplified by a transducer and PowerLab (ADInstruments, Bella Vista, New South Wales, Australia), was continuously recorded as gram force using LabChart (ADInstruments, Bella Vista, New South Wales, Australia). The hook is pulled to apply a load of up to 1 gf. A resting period of approximately 10 min was required for the gradual relaxation of the vessel under tension from the hook. When relaxation reached a plateau, norepinephrine was added to the solution to achieve a final concentration of 5 μM. This causes the vessel to contract, increasing the load on the artery and surpassing 1 gf on the myograph recording. […] The reduction in load on the vessel in terms of gf was assessed to determine the relaxation rate and concentration (Figure 4). […]

[10] = set-up: method as in PMID 25357051; settings: cited from earlier work
[11] = Rattus norvegicus, 1 min, read-out: IC50 (cell viability), RSMCs, 1 min after addition
[12] = Rattus norvegicus, 5 min, read-out: IC50 (cell viability), RSMCs, 5 min after addition
[13] = Rattus norvegicus, 10 min, read-out: IC50 (cell viability), RSMCs, 10 min after addition
[14] = Rattus norvegicus, 0.5 h, read-out: IC50 (cell viability), RSMCs, 30 min after addition
[15] = Rattus norvegicus, 1 h, read-out: IC50 (cell viability), RSMCs, 60 min after addition
[16] = read-out: IC50 (cell viability), RSMCs, 1 min after addition
[17] = Homo sapiens, Endothelial cell, 1 min, read-out: IC50 (cell viability)
[18] = Homo sapiens, Endothelial cell, 5 min, read-out: IC50 (cell viability)
[19] = Homo sapiens, Endothelial cell, 10 min, read-out: IC50 (cell viability)
[20] = Homo sapiens, Endothelial cell, 0.5 h, read-out: IC50 (cell viability)
[21] = Homo sapiens, Endothelial cell, 1 h, read-out: IC50 (cell viability)

Question: For `Cc1ccc(N(CC2=NCCN2)c2cccc(O)c2)cc1` [Phentolamine, phentolamine], which cellular toxicity [1] is on record?
Answer: No cellular toxicity was observed

Question: What about the cellular toxicity [2] of the same compound?
Answer: No cellular toxicity was observed

Question: And the “onset of the effect” value [3]?
Answer: ≤ 2 min

Question: And the sustained effect [3]?
Answer: up to 20 min

Question: For `CCN(CC)CC(=O)Nc1c(C)cccc1C` [Lidocaine, lidocaine], which IC50 [1, 11] is on record?
Answer: 55300 µM

Question: And the IC50 [1, 12]?
Answer: 27900 µM

Question: And the IC50 [1, 13]?
Answer: 16700 µM

Question: And the IC50 [1, 14]?
Answer: 10100 µM

Question: And the IC50 [1, 15]?
Answer: 7100 µM

Question: What about the “IC50 expressed as percent concentration” value ([1]; SMC, 1-min post-dose) of the same compound?
Answer: 1.58%

Question: What about the IC50 [1, 16] of the same compound?
Answer: 55300 µM

Question: And the IC50 ([1]; read-out: IC50 (cell viability), RSMCs, 5 min after addition)?
Answer: 27900 µM

Question: And the IC50 ([1]; read-out: IC50 (cell viability), RSMCs, 10 min after addition)?
Answer: 16700 µM

Question: And the “IC50 expressed as percent concentration” value ([2]; EC, 1-min post-dose)?
Answer: 0.70%

Question: And the IC50 [2, 17]?
Answer: 24400 µM

Question: And the IC50 [2, 18]?
Answer: 16800 µM

Question: And the IC50 [2, 19]?
Answer: 13500 µM

Question: And the IC50 [2, 20]?
Answer: 10300 µM

Question: And the IC50 [2, 21]?
Answer: 7640 µM

Question: And the relaxation (rat abdominal aorta [4]; 1% lidocaine for 10 min)?
Answer: approximately 100%

Question: What about the “concentration achieving maximal vasodilation effect (approximately 100% relaxation)” value (rat abdominal aorta [4]; 10 min after administration, 5 μM norepinephrine, lidocaine data from previous research) of the same compound?
Answer: 35 mM

Question: And the osmotic pressure [5]?
Answer: 282 mOsm/L

Question: And the “duration of antispasmodic effect” value [6]?
Answer: 10 to 20 min

Question: What about the “onset of antispasmodic effect” value [6] of the same compound?
Answer: 45 to 90 s

Question: What about the “high concentrations relieving NE-dependent contractions and increasing blood flow” value [7] of the same compound?
Answer: 4.5 to 15 mM

Question: And the “low concentrations causing vasoconstriction” value [7]?
Answer: 15 to 1500 µM

Question: And the “peak concentration measured in peripheral blood” value [8]?
Answer: 1.5 µg/mL

Question: With `Cc1[nH]c(=O)c(C#N)cc1-c1ccc2nccn2c1` [Olprinone, olprinone] as the compound, how does the cellular toxicity [1] read?
Answer: No cellular toxicity was observed

Question: And the cellular toxicity [2]?
Answer: No cellular toxicity was observed

Question: Which “concentration achieving maximal vasodilation effect (approximately 100% relaxation)” value (rat abdominal aorta [9]) does the source give for `COc1ccc(Cc2nccc3cc(OC)c(OC)cc23)cc1OC` [Papaverine, papaverine] here?
Answer: 0.18 mM

Question: And the IC50 [1, 11]?
Answer: 100 µM

Question: What about the IC50 [1, 12] of the same compound?
Answer: 118 µM

Question: What about the IC50 [1, 13] of the same compound?
Answer: 13.5 µM

Question: What about the IC50 [1, 14] of the same compound?
Answer: 15.9 µM

Question: What about the IC50 [1, 15] of the same compound?
Answer: 1.5 µM

Question: What about the IC50 [1, 16] of the same compound?
Answer: 97 µM

Question: And the IC50 ([1]; read-out: IC50 (cell viability), RSMCs, 1 min after addition, listed as papaverine hydrochloride)?
Answer: 97 µM

Question: What about the IC50 ([1]; read-out: IC50 (cell viability), RSMCs, 60 min after addition) of the same compound?
Answer: 1.46 µM

Question: What about the IC50 [2, 17] of the same compound?
Answer: 56 µM

Question: And the IC50 [2, 18]?
Answer: 4.04 µM

Question: And the IC50 [2, 19]?
Answer: 4.29 µM

Question: What about the IC50 [2, 20] of the same compound?
Answer: 5 µM

Question: And the IC50 [2, 21]?
Answer: 6.48 µM

Question: And the “time until effects become evident” value ([6]; after local administration)?
Answer: 1 to 5 min

Question: What about the “pH of clinically used concentrations” value [10] of the same compound?
Answer: 3–4.5

Question: For `O=[N+]([O-])OCC(CO[N+](=O)[O-])O[N+](=O)[O-]` [Nitroglycerine, nitroglycerin], which “concentration achieving maximal vasodilation effect (approximately 100% relaxation)” value (rat abdominal aorta [9]) is on record?
Answer: 0.022 mM

Question: What about the relaxation (rat abdominal aorta [9]; at the investigated concentrations, 10 min, 5 μM norepinephrine) of the same compound?
Answer: approximately 50%

Question: What about the IC50 [1, 14] of the same compound?
Answer: 130 µM

Question: What about the IC50 [1, 15] of the same compound?
Answer: 109 µM

Question: And the IC50 ([1]; read-out: IC50 (cell viability), RSMCs, 30 min after addition)?
Answer: 134 µM

Question: What about the IC50 ([2]; Homo sapiens, Endothelial cell, 10 min, read-out: IC50 (cell viability), HCAECs, 10 min after addition) of the same compound?
Answer: 35 µM

Question: And the IC50 ([2]; Homo sapiens, Endothelial cell, 0.5 h, read-out: IC50 (cell viability), HCAECs, 30 min after addition)?
Answer: 38 µM

Question: And the IC50 ([2]; Homo sapiens, Endothelial cell, 1 h, read-out: IC50 (cell viability), HCAECs, 60 min after addition)?
Answer: 38.8 µM

Question: What about the IC50 ([2]; read-out: IC50 (cell viability), HCAECs, 10 min after addition) of the same compound?
Answer: 35.1 µM
